Data set [1] concerns S. pyrogens ATCC19615. The data set can be described thus: Neutropenic thigh infection model in mice. The format is in vivo, Streptococcus pyrogens. The settings on record: neutropenic mouse thigh model.
Data set [2] concerns Enterococcus faecium. The format is cell-based. How it is done: (§1) MIC assay were conducted using the protocol recommended by the Clinical and Laboratory Standards Institute.(37) Culture conditions (temperature, medium) are detailed in Table 3. All compounds were dissolved in sterile DMSO (ATCC, USA) to give a concentration of 6.4 mg/mL. Vancomycin hydrochloride was used as positive controls. Tested compounds were serially diluted across 96-well plates using a 2-fold serial dilution in a volume of 50 μL. An overnight culture of an assay strain was diluted 5,000-fold in fresh medium. 50 μL of this dilution was added into each well, giving a final volume of 100 μL in each well. Compounds were assayed at concentrations ranging from 64 μg/mL to 0.06 μg/mL. The top and bottom rows of each plate were filled with 100 μL of media to avoid edge effects. […] For Clostridium difficile plates were statically incubated under anaerobic conditions (Vinyl anaerobic chamber, 37° C., 5% H2, 5% CO2, 90% N2). For Streptococcus pneumoniae plates were statically incubated under aerobic conditions supplemented with 5% C02 (37° C.). All MICs were performed in technical duplicate (n=2) and repeated three independent times (n=3).

Data set [3] concerns Streptococcus pneumoniae. The data set is classed as cell-based. As for the experimental part: as §1
In data set [4] the test system is Staphylococcus aureus. The format is cell-based. As for the experimental part: as §1
For data set [5], the system named is Streptococcus agalactiae. The format is cell-based. As for the experimental part: as §1
Data set [6] relates to Streptococcus pyrogens. The format is cell-based. How it is done:
as §1

The subject of data set [7] is HEK293 cells. The data set is classed as cell-based, human. As for the experimental part: The cytotoxicity of […] analogs was tested using an MTT (3-(4,5-Dimethyl-2-thiazolyl)-2,5-diphenyl-2H-tetrazolium bromide) assay as previously described ([…] et al., 2006, […]7). HEK293 cells were seeded in a 96-well plate with a density of 5,000 cells/well and cultured in Dulbecco's Modified Eagle Medium (DMEM) supplemented with 10% fetal bovine serum, 1% Pen/Strep and 1% glutamate for 24 hours at 37° C. with 5% CO2. […] After 48 hours of incubation, the media was removed and 110 μL of freshly prepared MTT solution (0.45 mg/mL in DPBS) was added to each well. The plates were incubated for 3 hours at 37° C. with 5% C02 after which the MTT solution was removed by aspiration. […] The absorbance of each well was measured at OD570nm using a microplate reader (Infinite 200 PRO, Tecan). […] All the experiments were performed in triplicates (n=3) and repeated two independent times (n=2).

Data set [8] has as its system S. aureus USA300. Kind of data set: Neutropenic thigh infection model in mice. The format is in vivo, Staphylococcus aureus. Conditions: neutropenic mouse thigh model, S. aureus USA300, 40 mg/kg thrice daily (TID) IP, 24 hours post infection. As for the experimental part:
Mice were randomly housed in individually ventilated cages (IVC). The room was set on a twelve-hour light cycle and the temperature was set to 70° F. The humidity was set to 30%. To initiate the neutropenic model, mice were injected with 150 mg/kg and 100 mg/kg of cyclophosphamide via intraperitoneal (IP) injection on days −4 and −1, respectively. On day −1, a single colony of S. aureus USA300 was grown in 15 mL of cation adjusted Mueller Hinton (MH) broth at 37° C. with shaking overnight. On day 0, cells were centrifuged, washed twice in 0.9% sterile saline, and resuspended in sterile 0.9% saline solution to give final optical density (600 nm) of 0.1. 50 μL of bacteria suspension was injected into both thighs via intramuscular (IM) injection. This provides a challenge inoculum of approximately 1.0×10^6 CFU in each thigh in a volume of 50 μL. At 2 hours post infection, mice were given 200 μL of vehicle (10% DMSO), vancomycin (40 mg/kg, 10% DMSO) or cilagicin BP (40 mg/kg, 10% DMSO) at 2, 10, and 18 hours post infection via IP injection. Mice in the pretreatment group (n=4 mice/n=8 thighs) were humanely euthanized by CO2 narcosis to determine the starting thigh bacterial burden. […] All graphic data are expressed as data points by group and were statistically analyzed using Prism software (Prism 9). […]

Data set [9] relates to red blood cell (5% sheep blood agar plate). The format is cell-based. How it is done: The hemolytic activity of cilagicin was evaluated using a red blood cell disc diffusion assay. Cilagicin and other test compounds were dissolved in 10% DMSO to give concentrations ranging from 100 μg/mL to 12.5 μg/mL. 10% (v/v) Triton X-100 and 10% DMSO were used as positive and vehicle controls, respectively. 20 μL of each serially diluted compound was infused on a sterile disc. Infused discs were overlaid on the surface of a 5% sheep blood agar plate (Hardy diagnostics, USA) and incubated at 20° C. for 24 hours. The size of the transparent ring that appeared in the agar plate was measured to determine hemolytic activity. Experiments were performed two independent times. A representative picture was taken of one experiment.

Data set [10] has as its system Clostridium difficile. The data set can be described thus: MIC assay (broth microdilution). The format is cell-based. The settings on record: C. difficile HM89. How it is done:
as §1

Values after ≈ are worked out from the molar mass of the structure shown. Positions of bridges follow the written chain, without caps; N, C: chain ends. Non-standard residues stand in square brackets, D forms with d. Residues, ends and D or L forms follow the SMILES beside them. *: point of attachment. Benzoyl(4-Ph) = O=C(c1ccc(-c2ccccc2)cc1)*; dDab = NCC[C@@H](N)C(=O)O; Dab = NCC[C@H](N)C(=O)O

Usually MIC stands for the least concentration at which growth counts as inhibited. Low values mean greater potency, high ones weaker potency. In the case of `CC(C)[C@@H]1NC(=O)[C@H](Cc2ccc(O)cc2)NC(=O)CNC(=O)[C@@H](CC(=O)O)NC(=O)[C@@H](CC(N)=O)NC(=O)CNC(=O)[C@H](CC(=O)O)NC(=O)[C@@H](CCN)NC(=O)[C@@H](NC(=O)[C@@H](CO)NC(=O)c2ccc(-c3ccccc3)cc2)[C@@H](C)OC(=O)[C@H](Cc2ccccc2)NC(=O)[C@H](CCN)NC1=O` [Cilagicin BP] ({Benzoyl(4-Ph)}-[dS]T[dDab]DG[dN][dD]GYV[Dab]F; ester 2-C), in data set [1] (S. pyrogens ATCC19615, 40 mg/kg TID IP, 24 hours post infection), the “reduction in bacterial burden compared to the vehicle control” value is greater than 5 log10. Besides, the “reduction of bacterial burden compared with vancomycin” value in [1] (S. pyrogens, both 40 mg/kg TID) was “more than a log greater reduction of bacterial burden than vancomycin”. The MIC was greater than 64 mg/L in [2]; 4 mg/L (≈ 2.78 µM) in data set [3]; 4 mg/L (≈ 2.78 µM) in data set [4]; 16 mg/L (≈ 11.1 µM) in data set [5]; 1 mg/L (≈ 0.696 µM) in [6]; 16 mg/L (≈ 11.1 µM) in data set [10]. For the same molecule, the “antibacterial activity (MIC) in the presence of serum” value in data set [4] (S. aureus, presence versus absence of serum (10% serum)) is listed as “no increase in MIC”. Also, the human cell cytotoxicity result in [7] is “no human cell cytotoxicity”. Besides, the “reduction in colony forming units (CFU) compared to the vehicle control” value in data set [8] is roughly 4 log10. Moreover, in data set [9], the hemolytic activity entry was “no hemolytic activity”.

(Values after patent US20260193295A1, “CILAGICIN COMPOUNDS AND METHODS OF USE THEREOF” (priority 2022, published 2026).)
